These results are taken from ChEMBL document CHEMBL1201862, “PubChem BioAssay data set” (2004).

One may read the EC50 as the concentration at which the effect is half-maximal. The AC50 is the midpoint of the concentration-response curve, whichever way the signal moves. By CC50 is commonly meant the concentration at which the toxic effect on the cells reaches its halfway point. One may read the IC50 as the concentration that gives 50% inhibition.

For assay [1], the target named is T1, Endoribonuclease toxin MazF (Escherichia coli K-12, UniProt P0AE70).
T1 sequence (P0AE70 whole entry): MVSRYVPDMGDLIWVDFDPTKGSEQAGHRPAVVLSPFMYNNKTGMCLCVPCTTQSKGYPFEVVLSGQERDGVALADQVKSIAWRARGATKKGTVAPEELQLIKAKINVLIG
The assay can be described thus: fluorescent RNA oligo signal without MazF, dose response, counter-screen for MazEF activator project, biochemical, fluorescence, single-stranded RNase substrate (AID 588502). The format is functional. A general note: The purpose of a counterscreen is to sort out artefacts and off-target activity.

Assay [2] addresses T1, Endoribonuclease toxin MazF. Briefly: MazF toxin RNase activators, dose response, biochemical, fluorescence, single-stranded RNA substrate, uHTS hits (AID 588481). The class given is functional.
Assay [3] deals with A-375. Briefly: MITF: Counter assay: A375 proliferation Measured in Cell-Based System Using Plate Reader - 2084-03_Inhibitor_Dose_DryPowder_Activity. [Related pubchem assays (depositor defined):AID488944]. The class given is functional. Particulars: Homo sapiens.
For assay [4], the target named is T2, Microphthalmia-associated transcription factor (Homo sapiens, UniProt O75030).
T2 sequence (O75030 whole entry): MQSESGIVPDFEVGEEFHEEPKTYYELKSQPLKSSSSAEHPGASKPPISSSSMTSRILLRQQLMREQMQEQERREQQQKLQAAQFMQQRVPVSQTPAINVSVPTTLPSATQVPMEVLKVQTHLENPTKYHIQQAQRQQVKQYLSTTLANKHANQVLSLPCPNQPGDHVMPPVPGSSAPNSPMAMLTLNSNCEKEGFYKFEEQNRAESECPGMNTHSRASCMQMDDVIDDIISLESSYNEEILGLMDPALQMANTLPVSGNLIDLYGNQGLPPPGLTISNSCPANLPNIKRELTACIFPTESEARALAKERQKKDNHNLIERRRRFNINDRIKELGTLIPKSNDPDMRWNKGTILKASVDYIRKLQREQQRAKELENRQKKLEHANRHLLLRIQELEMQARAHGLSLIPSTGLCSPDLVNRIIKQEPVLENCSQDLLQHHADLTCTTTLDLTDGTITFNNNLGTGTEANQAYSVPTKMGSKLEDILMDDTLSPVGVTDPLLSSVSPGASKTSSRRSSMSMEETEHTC
Briefly: TRPM1 promoter luciferase signal decrease, dose response, MITF inhibitor project, cell-based, SK-MEL-5, cherry-picked, set 3 (AID 493073).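 Note: SK-MEL-5 melanoma cells with luciferase driven by the MITF target TRPM1 promoter.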 The class given is functional.

Assay [5] relates to A-375. Briefly: A375 melanoma cell viability reduction, dose response, counter-screen for MITF modulator project, cherry-pick samples, set 2 (AID 540335). The format is functional, cell-based. Particulars: Homo sapiens.
For the next assay, the system named is Vero. The assay can be described thus: cells. The class given is functional. Particulars: Chlorocebus sabaeus.
Assay [6] in a line: CEM21 lymphoblast cell cytotoxicity, dose response, cytotoxicity control for viral fusion inhibitor project, CellTiter-Glo luminescence, cherry-picked (AID 652042).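 Note: potency for signal decrease meaning cytotoxicity.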 The format is functional, cell-based. (ATP-based viability assays read luminescence as a measure of living cells.)
Another assay has as its system INS1. The assay can be described thus: beta cell apoptosis inhibitors, cytokine rescue, dose response, luminescence, retest (AID 449756).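 Note: cell death triggered by IL-1 beta plus TNF-alpha plus IFN-gamma mixture; protective hits raise ATP signal compared with cytokine alone wells.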 The class given is functional, cell-based. Particulars: Rattus norvegicus.
Assay [7] in a line: ZM109 Env clade C HIV-1 fusion inhibitors, dose response, HeLa effector, CEM target cells, luciferase, cherry-pick (AID 652058). The format is functional, cell-based.
Assay [8] concerns the target G-protein coupled receptor 55 (Homo sapiens, UniProt Q9Y2T6). The assay can be described thus: GPR55 agonists via beta-arrestin recruitment, primary screen, imaging, U2OS cells, beta-arrestin-GFP redistribution (AID 1961). The class given is functional. (In general: Recruitment of arrestin is a read-out of receptor activation apart from second messengers.)
A short description of assay [9]: inhibitors of HIV Env-driven cell fusion, dose response, cherry-pick (AID 652057). The format is functional, cell-based.
Assay [10] can be described thus: inhibitors of clade B AD8 Env fusion, dose response, cell-based, cherry-pick (AID 652062).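 Note: luciferase signal from cell-cell fusion driven by HIV-1 clade B AD8 Env; potency is for inhibitors of fusion seen as a drop in luminescence.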 The class given is functional.
A short description of assay [11]: cytotoxicity in HEK-293T NF-kB-Luc cells, dose response, cytotoxicity control for B/T-cell NF-kB inhibitor project, cell-based, uHTS hits (AID 489019).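 Note: IC50 reflects cytotoxicity as loss of cell viability.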 The class given is functional.
A short description of assay [12]: LGR2 antagonists, dose response, cell-based, HEK293, CRE-luciferase reporter, cherry pick, set 2 (AID 743343).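 Note: transfected cells were stimulated with diluted bursicon conditioned medium after compound addition.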 The class given is functional.
Assay [13] in a line: non-specific cell cytotoxicity, dose response, cytotoxicity control for PAX8 inhibitor project, plate reader, dry powder samples (AID 743021). The format is functional, cell-based.
For assay [14], the target named is Luciferin 4-monooxygenase (Photinus pyralis, UniProt P08659). The assay can be described thus: firefly luciferase enzyme inhibitors, dose response, biochemical, luminescence (AID 1891).
A short description of assay [15]: MC4R antagonists, dose response, counter-screen for LGR2 antagonist project, cell-based, plate reader, cherry pick (AID 743444).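 Note: transfected HEK 293 cells stimulated with alpha-MSH peptide; potency of inhibitors of the alpha-MSH evoked signal.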 The format is functional.
Assay [16] in a line: Luminescence Cell-Based Dose Confirmation HTS to Identify Inhibitors of Platelet Dense Granule Release. [Related pubchem assays: 1663 (Primary HTS), 1678 (Summary of Project)]. The class given is functional.
A short description of assay [17]: Shn3 3'UTR reporter inhibitors, dose response, cell-based, Clone20 osteoblasts, firefly luciferase, cherry-picked (AID 624132).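 Note: firefly luciferase luminescence from reporter carrying the Shn3 3'UTR in osteoblasts.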 The format is functional.
Assay [18] can be described thus: HepG2 cell cytotoxicity, dose response, cytotoxicity control for Shn3 inhibitor project, CellTiter-Glo, cherry-picked (AID 624134). The class given is functional, cell-based.
The nature of assay [19]: HEK293 cell cytotoxicity, dose response, cytotoxicity control, plate reader, cherry-picked samples (AID 743446). The class given is functional, cell-based.
Assay [20] can be described thus: HepG2 cell cytotoxicity, dose response, cytotoxicity control, plate reader, cherry-pick, antagonist series (AID 743416). The class given is functional, cell-based.
The next assay has as its target Paired box protein Pax-8 (Homo sapiens, UniProt Q06710). Briefly: inhibitors of PAX8-driven TPO luciferase reporter, dose response, RMG-I cells, cherry-pick (AID 687027).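 Note: luciferase reporter driven by Pax8 target thyroperoxidase promoter measured by SteadyGlo luminescence.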 The format is functional, cell-based.
The nature of assay [21]: A549 cell cytotoxicity, dose response, cytotoxicity control, plate reader, cherry-pick, antagonist series (AID 743412). The class given is functional, cell-based.
A further assay relates to Jurkat. The assay can be described thus: antigen receptor-induced NF-kB inhibitors, dose response, Jurkat, luciferase reporter, luminescence, B- and T-cell (AID 489004).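 Note: NF-kB luciferase reporter Jurkat cells stimulated with PMA plus ionomycin.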 The format is functional, cell-based. Particulars: Homo sapiens.
The target in assay [22] is T3, Nuclear receptor subfamily 0 group B member 1 (Homo sapiens, UniProt P51843).
T3 sequence (P51843 whole entry): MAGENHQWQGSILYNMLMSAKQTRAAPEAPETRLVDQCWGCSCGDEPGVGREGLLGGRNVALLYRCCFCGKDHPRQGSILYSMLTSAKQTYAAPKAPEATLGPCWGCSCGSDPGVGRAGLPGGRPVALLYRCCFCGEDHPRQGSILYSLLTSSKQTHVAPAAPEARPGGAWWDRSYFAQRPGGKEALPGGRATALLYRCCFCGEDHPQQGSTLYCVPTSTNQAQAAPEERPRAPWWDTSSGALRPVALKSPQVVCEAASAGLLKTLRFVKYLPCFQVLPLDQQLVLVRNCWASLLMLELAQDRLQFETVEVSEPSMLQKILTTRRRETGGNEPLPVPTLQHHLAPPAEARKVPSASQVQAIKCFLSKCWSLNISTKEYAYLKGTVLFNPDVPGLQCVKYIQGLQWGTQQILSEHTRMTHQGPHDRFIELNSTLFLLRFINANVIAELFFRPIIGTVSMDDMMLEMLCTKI
The assay can be described thus: Luminescence-based cell-based high throughput dose response assay for inhibitors of the orphan nuclear receptor subfamily 0, group B, member 1 (DAX1; NR0B1). [Related pubchem assays (depositor defined):AID504766, AID504790]. The class given is functional.

Another assay has as its system HEK293. The assay can be described thus: cells. The format is functional, cell-based. Particulars: Homo sapiens.
Another assay addresses CAAX prenyl protease 2 (Homo sapiens, UniProt Q9Y256). Briefly: human Rce1 protease inhibitors, dose response, biochemical, yeast membranes, quenched-peptide fluorescence, cherry-pick (AID 588849).
The target in assay [23] is Eukaryotic translation initiation factor 4E (Mus musculus, UniProt P63073). The assay can be described thus: eIF4E–eIF4G protein interaction inhibitors, dose response, biochemical, TR-FRET (AID 855).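 Note: potency for disrupting eIF4E binding to eIF4GI seen as loss of FRET.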 The class given is functional.
The nature of assay [24]: NIH-3T3 fibroblast cytotoxicity, dose response, cytotoxicity control, cell-based, fluorescence, Alamar Blue, secondary assay (AID 2327).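 Note: NIH-3T3 mouse fibroblasts cultured with fluconazole at 8 µg/mL.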 The format is functional.
The target of assay [25] is ATP-dependent molecular chaperone HSP82 (Candida albicans (strain WO-1) (Yeast), UniProt C4YTQ8). The assay can be described thus: loss of DOC-induced GRE-beta-galactosidase reporter signal, dose response, Hsp90 inhibitor project, S. cerevisiae, luminescence (AID 2400).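 Note: beta-galactosidase luminescence from glucocorticoid response element reporter as proxy for Hsp90 function; inhibitor potency where signal loss means Hsp90 inhibition.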 The format is functional, cell-based.
For assay [26], the target named is Serine/threonine-protein phosphatase (Candida dubliniensis (strain CD36 / CBS 7987 / NCPF 3949 / NRRLY-17841) (Yeast), UniProt B9W6M3). The assay can be described thus: calcineurin pathway inhibitors in yeast reporter, dose response, S. cerevisiae, CDRE-lacZ, luminescence, secondary (AID 2388).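 Note: yeast reporter cells carrying a calcineurin-responsive lacZ construct stimulated with calcium chloride; luminescent beta-galactosidase reporter signal in whole cells rather than isolated phosphatase activity; potency for inhibition where a drop in reporter signal means calcineurin blockade.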 The class given is functional, cell-based.
The nature of assay [27]: C. albicans growth with fluconazole, confirmation, fluorescence, retest (AID 2467). The format is functional, cell-based.
The test system of the next assay is CHO. Briefly: cytotoxicity in TLR9-MyD88 CHO cells, dose response, cytotoxicity control for TLR9-MyD88 binding inhibitor project, cell-based, luminescence (AID 588339).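 Note: CHO cells stably coexpressing TLR9 and MyD88 fusions from primary screen; compound exposure lasted 48 hours before viability readout.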 Particulars: Cricetulus griseus. The format is functional, hamster.
The next assay concerns the target Beta Lactamase (Pseudomonas aeruginosa, UniProt Q932Y6). The assay can be described thus: beta-lactamase reporter inhibitor potency, dose response, artefact control for TLR9-MyD88 binding inhibitor project, BLA reporter cells, FRET fluorescence (AID 588341).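 Note: cell based assay in CHO-K1 cells stably expressing beta-lactamase.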 The format is cell-based.

Calls of active or inactive are those of the source.

Sequence of Luciferin 4-monooxygenase (P08659 whole entry): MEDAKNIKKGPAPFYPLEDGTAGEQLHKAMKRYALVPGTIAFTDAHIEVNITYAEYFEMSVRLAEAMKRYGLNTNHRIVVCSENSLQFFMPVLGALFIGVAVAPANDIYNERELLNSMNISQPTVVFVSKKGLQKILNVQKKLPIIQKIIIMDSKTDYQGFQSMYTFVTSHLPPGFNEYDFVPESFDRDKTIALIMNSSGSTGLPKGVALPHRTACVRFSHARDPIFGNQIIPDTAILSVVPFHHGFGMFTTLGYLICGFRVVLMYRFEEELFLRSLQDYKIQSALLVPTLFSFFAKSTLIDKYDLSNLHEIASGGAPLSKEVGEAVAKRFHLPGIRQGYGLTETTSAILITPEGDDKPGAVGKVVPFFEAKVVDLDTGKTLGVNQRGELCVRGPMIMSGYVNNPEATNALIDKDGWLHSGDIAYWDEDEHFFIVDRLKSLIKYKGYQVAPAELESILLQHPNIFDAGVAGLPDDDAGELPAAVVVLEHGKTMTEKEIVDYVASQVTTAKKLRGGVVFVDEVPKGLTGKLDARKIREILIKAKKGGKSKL
Sequence of G-protein coupled receptor 55 (Q9Y2T6 whole entry, the tested form may be a part): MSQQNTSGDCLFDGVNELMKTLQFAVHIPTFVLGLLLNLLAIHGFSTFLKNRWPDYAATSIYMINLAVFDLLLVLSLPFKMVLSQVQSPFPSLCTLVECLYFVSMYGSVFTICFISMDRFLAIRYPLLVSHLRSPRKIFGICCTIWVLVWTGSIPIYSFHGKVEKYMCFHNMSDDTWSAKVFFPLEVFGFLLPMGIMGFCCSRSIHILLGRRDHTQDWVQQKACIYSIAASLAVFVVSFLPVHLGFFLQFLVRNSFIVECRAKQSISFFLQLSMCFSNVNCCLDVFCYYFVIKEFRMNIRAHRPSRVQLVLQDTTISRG
Sequence of Serine/threonine-protein phosphatase (B9W6M3 whole entry): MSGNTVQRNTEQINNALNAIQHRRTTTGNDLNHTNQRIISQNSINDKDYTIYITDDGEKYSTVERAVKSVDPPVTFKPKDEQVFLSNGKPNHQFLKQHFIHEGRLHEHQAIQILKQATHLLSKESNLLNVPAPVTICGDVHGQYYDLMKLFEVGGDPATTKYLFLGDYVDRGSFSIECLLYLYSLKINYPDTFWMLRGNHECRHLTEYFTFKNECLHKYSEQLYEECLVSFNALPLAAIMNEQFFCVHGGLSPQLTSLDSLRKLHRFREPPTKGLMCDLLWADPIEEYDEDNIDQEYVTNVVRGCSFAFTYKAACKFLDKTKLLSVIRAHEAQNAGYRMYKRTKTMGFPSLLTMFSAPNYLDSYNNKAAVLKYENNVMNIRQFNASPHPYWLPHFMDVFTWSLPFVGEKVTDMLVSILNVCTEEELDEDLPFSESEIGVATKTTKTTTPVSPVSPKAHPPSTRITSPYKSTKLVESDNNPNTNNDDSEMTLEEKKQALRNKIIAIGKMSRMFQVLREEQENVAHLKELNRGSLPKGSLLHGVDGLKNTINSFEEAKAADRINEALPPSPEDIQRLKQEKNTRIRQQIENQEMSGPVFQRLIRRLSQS
Sequence of Eukaryotic translation initiation factor 4E (P63073 whole entry): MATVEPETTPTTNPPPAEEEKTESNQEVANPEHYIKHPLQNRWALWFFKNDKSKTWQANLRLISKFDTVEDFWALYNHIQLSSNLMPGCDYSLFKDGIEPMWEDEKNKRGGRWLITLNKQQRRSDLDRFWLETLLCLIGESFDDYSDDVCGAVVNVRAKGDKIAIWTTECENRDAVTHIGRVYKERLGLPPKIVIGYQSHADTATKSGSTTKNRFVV
Sequence of ATP-dependent molecular chaperone HSP82 (C4YTQ8 whole entry): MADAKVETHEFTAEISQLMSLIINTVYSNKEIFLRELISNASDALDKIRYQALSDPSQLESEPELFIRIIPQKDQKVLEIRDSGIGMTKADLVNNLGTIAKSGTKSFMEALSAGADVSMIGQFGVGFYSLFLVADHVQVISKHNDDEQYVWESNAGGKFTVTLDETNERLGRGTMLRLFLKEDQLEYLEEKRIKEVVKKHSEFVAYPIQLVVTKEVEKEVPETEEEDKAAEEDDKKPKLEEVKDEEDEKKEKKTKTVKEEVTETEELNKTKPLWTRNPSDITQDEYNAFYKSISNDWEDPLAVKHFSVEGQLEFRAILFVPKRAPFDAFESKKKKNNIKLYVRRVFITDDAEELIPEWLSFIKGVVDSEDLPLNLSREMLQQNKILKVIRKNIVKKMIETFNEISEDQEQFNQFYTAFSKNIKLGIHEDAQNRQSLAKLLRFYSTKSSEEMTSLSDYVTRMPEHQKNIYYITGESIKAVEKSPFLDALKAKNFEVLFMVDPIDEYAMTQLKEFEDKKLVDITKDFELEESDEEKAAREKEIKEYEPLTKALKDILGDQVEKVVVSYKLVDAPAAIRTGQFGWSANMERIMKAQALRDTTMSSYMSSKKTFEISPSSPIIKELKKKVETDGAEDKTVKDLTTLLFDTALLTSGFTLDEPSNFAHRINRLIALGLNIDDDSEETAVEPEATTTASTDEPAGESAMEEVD
Sequence of CAAX prenyl protease 2 (Q9Y256 whole entry): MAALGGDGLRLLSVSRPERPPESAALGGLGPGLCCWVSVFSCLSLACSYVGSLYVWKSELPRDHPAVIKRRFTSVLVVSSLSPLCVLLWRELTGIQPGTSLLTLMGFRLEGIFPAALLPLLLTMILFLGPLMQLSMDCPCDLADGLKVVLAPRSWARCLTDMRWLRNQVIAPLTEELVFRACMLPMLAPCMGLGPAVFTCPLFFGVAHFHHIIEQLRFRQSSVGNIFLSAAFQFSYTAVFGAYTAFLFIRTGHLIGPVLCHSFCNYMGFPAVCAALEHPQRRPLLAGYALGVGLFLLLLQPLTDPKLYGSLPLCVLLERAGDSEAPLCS
Sequence of Beta Lactamase (Q932Y6 whole entry): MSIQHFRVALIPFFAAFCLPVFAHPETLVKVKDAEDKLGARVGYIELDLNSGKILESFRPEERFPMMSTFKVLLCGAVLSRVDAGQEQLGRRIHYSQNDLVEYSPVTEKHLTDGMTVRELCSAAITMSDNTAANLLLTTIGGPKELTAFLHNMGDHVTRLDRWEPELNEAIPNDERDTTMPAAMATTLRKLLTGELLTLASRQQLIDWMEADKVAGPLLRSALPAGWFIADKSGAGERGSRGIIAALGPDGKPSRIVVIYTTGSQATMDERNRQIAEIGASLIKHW
Sequence of Paired box protein Pax-8 (Q06710 whole entry): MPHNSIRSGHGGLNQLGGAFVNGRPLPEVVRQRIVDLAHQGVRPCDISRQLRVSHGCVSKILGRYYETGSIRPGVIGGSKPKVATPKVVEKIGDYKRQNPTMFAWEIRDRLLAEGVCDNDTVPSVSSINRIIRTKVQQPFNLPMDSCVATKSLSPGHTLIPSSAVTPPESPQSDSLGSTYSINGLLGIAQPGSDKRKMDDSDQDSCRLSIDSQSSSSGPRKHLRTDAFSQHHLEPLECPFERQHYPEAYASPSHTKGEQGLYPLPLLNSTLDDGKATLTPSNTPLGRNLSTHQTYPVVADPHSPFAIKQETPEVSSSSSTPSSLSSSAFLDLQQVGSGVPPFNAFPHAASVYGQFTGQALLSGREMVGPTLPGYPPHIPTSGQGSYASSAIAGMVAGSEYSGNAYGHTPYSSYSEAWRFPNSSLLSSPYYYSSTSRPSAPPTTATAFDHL

With `N=c1n(CC(=O)c2ccc([N+](=O)[O-])cc2)c2ccccc2n1Cc1ccccc1`, the EC50 in assay [1] and in [2] was > 99 µM (inactive) throughout. Besides, the AC50 in the assay with A-375 [3] was > 11 µM (active); in assay [4] it was 4.83 µM (active); in the assay with A-375 [5], > 11 µM (active).

On to `CC1CCC(C(C)C)C(OC(=O)Cn2c(-c3ccc(Cl)cc3)[n+](C)c3ccccc32)C1` (configuration not stated), for which, in the assay on Vero, the 50% cytotoxic concentration (CC50) was > 25 µM (active). The concentration at half-maximal activity (AC50) in assay [6] was 9.28 µM (active); with INS1, 3.42 µM (active); in assay [7], 11.7 µM (active); in assay [9], 15.7 µM (active); in assay [10], 10.8 µM (active); in assay [4], 6.29 µM (active). For the same compound, the half-maximal activity concentration (AC50) in the assay on A-375 [5] is 26.3 µM (active). For the same compound, the EC50 in [8] is > 32 µM (inactive).

For `COCCn1c(C)cc(C2=NN=C(NC3CC3)SC2)c1C`, the values for the IC50 (in assay [11]; with Jurkat) were > 80 µM (inactive) and 0.22 µM (active), respectively. In addition, the half-maximal activity concentration (AC50) is 0.215 µM (active) in assay [12]; 12.1 µM (active) in assay [13]; 0.282 µM (active) in assay [15]; < 0.26 µM (active) in [17]; 46.1 µM (active) in assay [18]; 29.2 µM (active) in assay [19]. In addition, the values for the AC50 (in [20]; at Paired box protein Pax-8; in [21]) were 26.7 µM (active), < 0.26 µM (active) and 22.4 µM (active), respectively. Moreover, the results for the 50% effective concentration (EC50) in assay [14] and in assay [16] were 7.61 µM (active) and 2.14 µM (active), respectively.

For `CCCCNc1cc(=O)n(C)c(=O)[nH]1`, the IC50 (in assay [22]; with HEK293) was > 67.5 µM (inactive) throughout.

`O=c1c(-c2ccccc2)coc2c(CN3CCCC3)c(O)ccc12`: at CAAX prenyl protease 2, the AC50 is 16.2 µM (active). In assay [23], the IC50 is > 64 µM (inactive).

Regarding `CC(C)Cc1nc2oc3c(O)ncnc3c2c2c1CCCC2`, the EC50 in assay [24] is > 160 µM (inactive); in [25], > 150 µM (inactive); in [26] it was > 180 µM (inactive); in assay [27] it was 0.891 µM (active).

With `O=C(NCc1ccco1)c1cccc2c1C(=O)c1ccc(N3CCC(Cc4ccccc4)CC3)cc1S2(=O)=O`, the IC50 in the assay with CHO is > 49.8 µM (inactive); on Beta Lactamase it was 4.4 µM (active).
